Reference: ChEMBL document CHEMBL4476874, “Compounds for the modulation of myc activity” (2018)

Tests used:
[1] = tested on: NCI-H2171; experiment: Antiproliferative activity against human NCI-H2171 cells after 72 hrs by ATPlite assay; format: functional, cell-based; settings: NCI-H2171, 72 h
[2] = biological target: Myc proto-oncogene protein (Homo sapiens, UniProt P01106); experiment: Inhibition of human c-Myc assessed as reduction in c-Myc/Max/Ebox DNA complex formation using pre-formed complex of c-Myc and biotinylated DNA containing single Ebox-sequence followed by compound addition and further addition of his6-tagged c-Max and incubated for 2 hrs by AlphaScreen assay
Chain of Myc proto-oncogene protein (P01106 whole entry): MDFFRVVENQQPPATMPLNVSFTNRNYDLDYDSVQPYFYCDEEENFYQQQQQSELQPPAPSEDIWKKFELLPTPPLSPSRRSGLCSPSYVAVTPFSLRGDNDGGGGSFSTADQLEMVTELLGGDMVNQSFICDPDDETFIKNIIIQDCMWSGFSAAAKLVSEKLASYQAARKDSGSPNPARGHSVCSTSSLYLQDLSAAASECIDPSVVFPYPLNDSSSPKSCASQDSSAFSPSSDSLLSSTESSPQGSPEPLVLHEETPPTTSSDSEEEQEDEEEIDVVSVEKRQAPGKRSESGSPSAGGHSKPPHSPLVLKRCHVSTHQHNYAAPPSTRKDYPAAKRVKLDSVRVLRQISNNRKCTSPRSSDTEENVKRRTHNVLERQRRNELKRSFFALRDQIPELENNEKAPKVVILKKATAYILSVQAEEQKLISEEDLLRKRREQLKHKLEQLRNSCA

Compound | IC50 [1] [nM] | IC50 [2] [nM]
CC(C)NCCC(=O)Nc1sc2c(c1-c1nc3cc(S(=O)(=O)c4ccccc4)ccc3s1)CCNC2 | < 300 | 300 to 1000
COCCNCCC(=O)Nc1sc2c(c1-c1nc3c(N4CC(O)C4)cccc3s1)CCNC2 | < 300 | < 300
CC(=O)Nc1sc2c(c1-c1nc3cc(-c4ccncc4)ccc3s1)CCNC2 | < 300 | 300 to 1000
CC(C)NCCC(=O)Nc1sc2c(c1-c1nc3cc(Sc4ccccn4)ccc3s1)CCNC2 | < 300 | 1000 to 10000
COCCNCCC(=O)Nc1sc2c(c1-c1nc3c(Nc4ccccc4)cccc3s1)CCNC2 | 300 to 1000 | > 10000
Cc1cc(-c2ccc3sc(-c4c(NC(=O)CCNC(C)C)sc5c4CCNC5)nc3c2)cc(C)n1 | < 300 | > 10000
CC(C)NCCC(=O)Nc1sc2c(c1-c1nc3cc(S(=O)(=O)C4CCCC4)ccc3s1)CCNC2 | < 300 | 300 to 1000

More lines, now with the values ahead:

IC50 [1] [nM] | IC50 [2] [nM] | Compound
< 300 | > 10000 | CC(C)NCCC(=O)Nc1sc2c(c1-c1nc3cc(SC4CCCC4)ccc3s1)CCNC2
< 300 | 300 to 1000 | O=C(CCNC1CC1)Nc1sc2c(c1-c1nc3ccccc3s1)CCNC2
< 300 | 300 to 1000 | CCN(CC)CCC(=O)Nc1sc2c(c1-c1nc3ccccc3s1)CCNC2
300 to 1000 | 300 to 1000 | CC(=O)Nc1sc2c(c1-c1nc3ccc(-c4cnn(C)c4)cc3s1)CCNC2
300 to 1000 | > 10000 | CC(C)NCCC(=O)Nc1sc2c(c1-c1nc3cc(Sc4ccccc4)ccc3s1)CCNC2
300 to 1000 | 1000 to 10000 | O=C(CCNC1C2CC1C2)Nc1sc2c(c1-c1nc3ccccc3s1)CCNC2 (stereo not given)
< 300 | 300 to 1000 | CC(=O)Nc1sc2c(c1-c1nc3cc(-c4cnn(C)c4)ccc3s1)CCNC2
300 to 1000 | 1000 to 10000 | O=C(CCN1CCOCC1)Nc1sc2c(c1-c1nc3ccccc3s1)CCNC2
